GI50 and TGI data for ten compounds are collected here from PubChem BioAssay (NCI).

“And” between values parts separate entries of the source, which are not always exact repeats. Identical values can stand only once.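 Protocol summary: plate cells (96-well), add compound at 5 concentrations, incubate 48 h, interpolate endpoints linearly. At the GI50, growth is halved. Definition used: TGI = concentration required for complete inhibition of growth.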 Where only a bound is given, the exact number is not on record here.

Holding throughout (test): NCI tumour cell line growth inhibition, 48 h
The test system of test [1] is U251 CNS.
The subject of test [2] is NCI-H522 lung.
The subject of test [3] is HT29 colon.
For test [4], the system named is DU-145 prostate.
Test [5] relates to KM12 colon.
For test [6], the system named is PC-3 prostate.
Test [7] concerns CAKI-1 renal.
The subject of test [8] is HCT-116 colon.

Consider `COc1ccc(C2CC(c3ccc(OC)cc3O)=NN2c2ccc(S(N)(=O)=O)cc2)cc1` (stereo unspecified), for which the GI50 in test [1] is 6.42 µM; in test [2], 15.5 µM; in test [3] it was 11.1 µM; in test [4], 44.5 µM; in test [5], 5.14 µM; in test [6] it was 4.29 µM. The GI50 in test [7] was 6.74 µM; in test [8] it was 4.47 µM. Moreover, the TGI in test [1], in test [2], in test [3], in test [4], in test [5] and in test [6] was more than 100 µM in each case. Further, the TGI was 91.9 µM in test [7] and 69.3 µM in test [8].

With `O=C(Nc1n[nH]c2nc(-c3ccc(O)cc3)c(Br)cc12)C1CC1`, the GI50 in test [1] is 4.39 µM; in test [2] it was 4.33 µM; in test [3], 2.04 µM; in test [4] it was 3.8 µM; in test [5], 1.54 µM; in test [6], 4.49 µM. The GI50 was 3.11 µM in test [7] and 1.9 µM in test [8]. For the same compound, the TGI in test [1] was more than 20.2 µM; in test [2], 12.1 µM; in test [3], 13.8 µM; in test [4], 20.4 µM; in test [5] it was 7.76 µM; in test [6] it was more than 23.4 µM. The values for the TGI in test [7] and in test [8] were 16.5 µM and more than 25 µM, respectively.

Turning to `Cc1c[nH]c(=O)n(Cc2nnc(CCC(=O)c3nc4ccccc4[nH]3)o2)c1=O`, the GI50 in test [1] was 0.372 µM; in test [2], 0.281 µM; in test [3], 0.194 µM; in test [4] it was 0.337 µM; in test [5] it was 0.414 µM; in test [6] it was 0.477 µM. Moreover, the GI50 was 7.22 µM in test [7] and 0.251 µM in test [8]. For the same compound, the TGI was more than 42.5 µM in test [1]; 1.4 µM in test [2]; more than 43.1 µM in test [3]; 1.21 µM in test [4]; more than 33.1 µM in test [5]; more than 100 µM in test [6]. Besides, the figures for the TGI in test [7] and in test [8] were more than 100 µM and more than 89.8 µM, respectively.

In the case of `CCCCC(OC(=O)c1ccc(N)cc1)C(=O)Nc1nc(CC(=O)OCC)cs1` (stereo unspecified), the GI50 in test [1] was 44.6 µM; in test [2] it was 33.9 µM; in test [3] it was 36.7 µM; in test [4], 36 µM; in test [5] it was 41.4 µM; in test [6], 42.4 µM. Moreover, the GI50 in test [7] is 39.1 µM; in test [8], 37.3 µM. Also, the TGI in test [1], in test [2], in test [3], in test [4], in test [5] and in test [6] was more than 100 µM each time. The TGI in test [7] and in test [8] was more than 100 µM in each case.

Turning to `O=C(Nc1cccc(C(F)(F)F)c1)c1ccc(NC2=C(Cl)C(=O)N(Cc3ccccc3)C2=O)cc1`, the GI50 in test [1] was 13.7 µM; in test [2], 3.02 µM; in test [3], 13.6 µM; in test [4], 3.38 µM; in test [5], 10.5 µM; in test [6], 14 µM. The values for the GI50 in test [7] and in test [8] were 1.65 µM and 2.81 µM, respectively. The TGI in test [1] came out at 27.1 µM; in test [2], 8.29 µM; in test [3], 52 µM; in test [4] it was 12.3 µM; in test [5], 24.8 µM; in test [6] it was 27 µM. Also, the values for the TGI in test [7] and in test [8] were 3.24 µM and 9.22 µM, respectively.

`CCOC(=O)c1c(-c2ccc(OC)c(O)c2)c(C#N)c(=S)n(C2OC(COC(C)=O)C(OC(C)=O)C(OC(C)=O)C2OC(C)=O)c1-c1ccccc1` (stereo unspecified): the TGI in test [1] is more than 100 µM; in test [2] it was 45.7 µM; in test [3] it was more than 100 µM; in test [4], 76.3 µM and > 100 µM; in test [5] it was 83.1 µM and > 100 µM; in test [6], 66.5 µM and > 100 µM. Also, the TGI in test [7] and in test [8] was more than 100 µM each time. Also, the GI50 in test [3] was 36.7 µM and > 100 µM; in test [4], 27.3 µM and > 100 µM; in test [5], 27 µM and > 100 µM; in test [6] it was 25 µM and > 100 µM; in test [7] it was 34.5 µM and > 100 µM; in test [8] it was 35.7 µM and > 100 µM.

As for `C=CCOc1ccc(N)c([N+](=O)[O-])c1`, the TGI in test [1], in test [2], in test [3], in test [4], in test [5] and in test [6] was more than 100 µM each time. The TGI in test [7] and in test [8] was more than 100 µM in each case.

Turning to `O=C(c1ccc2ccccc2c1)c1c(C(F)(F)F)n([O-])c2cc(C(F)(F)F)ccc2[n+]1=O`, the GI50 in test [1] is 1.75 µM; in test [2] it was 1.55 µM; in test [3], 1.74 µM; in test [4], 1.67 µM; in test [5] it was 1.69 µM; in test [6], 1.34 µM. Also, the GI50 in test [7] was 0.621 µM; in test [8] it was 1.41 µM. Also, the TGI turned out to be 3.29 µM in test [1]; 3.09 µM in test [2]; 3.46 µM in test [3]; 3.12 µM in test [4]; 3.22 µM in test [5]; 2.75 µM in test [6]. Also, the TGI came out at 1.45 µM in test [7] and 2.78 µM in test [8].

As to `FC(F)(F)c1cc(NC(=S)N2c3ccccc3-n3cccc3C2c2cccnc2)cc(C(F)(F)F)c1` (stereo unspecified), the GI50 in test [1] was 4.2 µM; in test [2] it was 3.68 µM; in test [3] it was 12.5 µM; in test [4], 10.6 µM; in test [5], 8.9 µM; in test [7] it was 5.36 µM. Also, in test [8], the GI50 is 12.4 µM. For the same compound, the TGI in test [1] stood at 14.8 µM; in test [2], 13.7 µM; in test [3], 34.5 µM; in test [4] it was 24.3 µM; in test [5] it was 32 µM; in test [6], 16.7 µM. Besides, the TGI was 21.7 µM in test [7] and 40.3 µM in test [8].

As for `O=C1OC(c2ccc(Cl)cc2)=N/C1=C\c1ccccc1`, the TGI in test [1], in test [2], in test [3], in test [4], in test [5] and in test [6] was more than 100 µM in each case. The TGI in test [7] and in test [8] was more than 100 µM each time.
